According to the supplement of paper PMC10307832:

What was measured:
Assay in all cases: relative viability (nuclei count vs DMSO), 5 days (fraction); higher = more cells survive
EKVX = tested on: EKVX
In short: (§1)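 One day after seeding in 1536-well plates, lung cancer cell lines were dosed by pin tool. Dosing was either single-drug or a fixed anchor-drug dose plus five library-drug doses (not always all listed) in √10 steps. After 5 days, nuclei were stained in one fix-and-stain step and counted on 4× images, and relative viability is the nuclei count of treated wells over that of vehicle wells, given as the median of duplicate plates.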

HCC-15 = tested on: HCC-15
In short: as §1

HCC-44 = tested on: HCC-44
In short: as §1

LCLC-103H = tested on: LCLC-103H
In short: as §1

NCI-H1395 = tested on: NCI-H1395
In short: as §1

NCI-H1648 = tested on: NCI-H1648
In short: as §1

NCI-H1755 = tested on: NCI-H1755
In short: as §1

UMC-11 = tested on: UMC-11
In short: as §1

A549 = tested on: A549
In short: as §1

Structure (SMILES) | relative viability (EKVX; first compound 0.08 µM) | relative viability (EKVX; first compound 0.253 µM) | relative viability (EKVX; first compound 0.8 µM) | relative viability (EKVX; first compound 2.53 µM) | relative viability (HCC-15; first compound 0.08 µM) | relative viability (HCC-15; first compound 0.253 µM) | relative viability (HCC-15; first compound 0.8 µM) | relative viability (HCC-15; first compound 2.53 µM) | relative viability (HCC-44; first compound 0.08 µM) | relative viability (HCC-44; first compound 0.253 µM) | relative viability (HCC-44; first compound 0.8 µM) | relative viability (HCC-44; first compound 2.53 µM) | relative viability (LCLC-103H; first compound 0.08 µM) | relative viability (LCLC-103H; first compound 0.253 µM) | relative viability (LCLC-103H; first compound 0.8 µM) | relative viability (LCLC-103H; first compound 2.53 µM) | relative viability (NCI-H1395; first compound 0.08 µM) | relative viability (NCI-H1395; first compound 0.253 µM) | relative viability (NCI-H1395; first compound 0.8 µM) | relative viability (NCI-H1395; first compound 2.53 µM) | relative viability (NCI-H1648; first compound 0.08 µM) | relative viability (NCI-H1648; first compound 0.253 µM) | relative viability (NCI-H1648; first compound 0.8 µM) | relative viability (NCI-H1648; first compound 2.53 µM) | relative viability (NCI-H1755; first compound 0.08 µM) | relative viability (NCI-H1755; first compound 0.253 µM) | relative viability (NCI-H1755; first compound 0.8 µM) | relative viability (NCI-H1755; first compound 2.53 µM) | relative viability (UMC-11; first compound 0.08 µM) | relative viability (UMC-11; first compound 0.253 µM) | relative viability (UMC-11; first compound 0.8 µM) | relative viability (UMC-11; first compound 2.53 µM) | relative viability (A549; first compound 0.08 µM) | relative viability (A549; first compound 0.253 µM) | relative viability (A549; first compound 0.8 µM) | relative viability (A549; first compound 2.53 µM)
COc1nc(C)cnc1NS(=O)(=O)c1cccnc1-c1ccc(-c2nnco2)cc1 [Zibotentan] + CC(=O)c1c(C)c2cnc(Nc3ccc(N4CCNCC4)cn3)nc2n(C2CCCC2)c1=O [Palbociclib] (partner 0.5 µM) | 0.276 | 0.354 | 0.37 | 0.5 | 0.796 | 0.641 | 0.796 | 0.713 | 0.98 | 0.827 | 0.949 | 1 | 0.459 | 0.477 | 0.449 | 0.442 | 0.653 | 0.618 | 0.614 | 0.654 | 0.274 | 0.276 | 0.312 | 0.259 | 0.421 | 0.497 | 0.447 | 0.453 | 0.35 | 0.323 | 0.363 | 0.323 |  |  |  | 
COc1nc(C)cnc1NS(=O)(=O)c1cccnc1-c1ccc(-c2nnco2)cc1 [Zibotentan] + Nc1nc2[nH]cc(CCc3ccc(C(=O)N[C@@H](CCC(=O)O)C(=O)O)cc3)c2c(=O)[nH]1 [Pemetrexed] (partner 0.2 µM) | 0.347 | 0.384 | 0.372 | 0.463 | 0.221 | 0.22 | 0.217 | 0.227 | 0.629 | 0.657 | 0.589 | 0.666 | 0.428 | 0.471 | 0.429 | 0.533 | 1.01 | 0.801 | 0.81 | 0.901 | 0.791 | 0.686 | 0.532 | 0.635 | 0.44 | 0.453 | 0.383 | 0.455 | 0.671 | 0.727 | 0.742 | 0.859 |  |  |  | 
COc1nc(C)cnc1NS(=O)(=O)c1cccnc1-c1ccc(-c2nnco2)cc1 [Zibotentan] + Nc1ncn([C@H]2C[C@H](O)[C@@H](CO)O2)c(=O)n1 [Decitabine] (partner 2 µM) | 0.325 | 0.339 | 0.286 | 0.346 | 0.607 | 0.538 | 0.727 | 0.696 | 1.01 | 0.924 | 1.01 | 0.988 | 0.718 | 0.727 | 0.738 | 0.709 | 0.736 | 0.68 | 0.708 | 0.674 | 0.544 | 0.464 | 0.519 | 0.461 | 0.737 | 0.616 | 0.8 | 0.732 | 0.576 | 0.532 | 0.634 | 0.697 | 0.232 | 0.266 | 0.305 | 0.285
